Results as given in paper PMC3280264 (PLoS ONE, 2012).

Columns and labels:
Human SGLT2 = Human SGLT2 (Homo sapiens, UniProt P31639); test: cell-based
Experimental: (§1) Sodium-dependent Glucose Uptake in Chinese Hamster Ovary (CHO) Cells Expressing SGLT1 and SGLT2 Co-transporters Parental CHO-K (CHOK) cells (commonly used mammalian cells for gene overexpression studies) expressing human or mouse SGLT1 and SGLT2 were utilized in this study. Cells were seeded into 96-well plates. Cells were then washed one time with 0.15 ml assay buffer (137 mM NaCl, 5 mM KCl, 1 mM CaCl2, 1 mM MgCl2, 50 mM HEPES, pH 7.4) at 37°C. […] Then, 5 µl of 6 mM alpha-methyl-D-glucopyranoside (AMG, a selective SGLT1/2 substrate)/^14C-AMG (0.07 µCi) was added to the cells and incubated at 37°C for 2 hours. Next, the cells were washed 3 times with 0.15 ml ice-cold phosphate-buffered saline (PBS). After the final wash was aspirated, 50 µl of microscint 20 (Packard, Meriden, Connecticut, USA) was added. The plate was counted by TopCount (Packard, Meriden, Connecticut, USA).
(§2) Statistical analysis was performed using the program Prism (Graphpad, Monrovia, California, USA). Differences between groups were evaluated using 1-way […] with Dunnett's multiple comparison test or student's t-test (unpaired), as appropriate. Probabilities less than 5% (P<0.05) were considered to be statistically significant. […] All data are presented as mean ± standard error.

Mouse SGLT2 = Mouse SGLT2 (Mus musculus, UniProt Q923I7); test: cell-based
Experimental: as §1, §2

Rat SGLT1 = biological target: T1, Rat SGLT1 (Rattus norvegicus, UniProt P53790); test: 14C-AMG uptake in CHOK cells expressing rat SGLT1; type: cell-based; conditions: mean of 2 experiments
T1 construct: expressed in transfected cells; host or cells: CHO-K (CHOK) cells
T1 sequence (P53790 1-665): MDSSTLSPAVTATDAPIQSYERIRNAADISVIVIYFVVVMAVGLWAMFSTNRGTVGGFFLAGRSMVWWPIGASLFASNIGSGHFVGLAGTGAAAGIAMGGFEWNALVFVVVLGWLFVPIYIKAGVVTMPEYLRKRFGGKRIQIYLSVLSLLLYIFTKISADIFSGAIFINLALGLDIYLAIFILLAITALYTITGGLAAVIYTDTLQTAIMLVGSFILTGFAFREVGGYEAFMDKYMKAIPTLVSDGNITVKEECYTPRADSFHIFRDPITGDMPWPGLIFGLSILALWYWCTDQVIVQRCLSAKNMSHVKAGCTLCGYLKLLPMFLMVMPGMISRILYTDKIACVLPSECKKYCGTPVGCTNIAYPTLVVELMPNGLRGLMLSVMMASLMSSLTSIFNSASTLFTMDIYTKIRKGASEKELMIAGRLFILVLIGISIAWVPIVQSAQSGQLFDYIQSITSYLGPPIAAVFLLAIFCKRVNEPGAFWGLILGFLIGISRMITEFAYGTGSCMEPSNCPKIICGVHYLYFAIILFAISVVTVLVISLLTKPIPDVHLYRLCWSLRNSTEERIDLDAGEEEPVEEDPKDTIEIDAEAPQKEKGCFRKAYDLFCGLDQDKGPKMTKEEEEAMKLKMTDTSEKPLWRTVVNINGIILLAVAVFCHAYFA
Experimental: Cells were seeded into 96-well plates.
All data are presented as mean ± standard error.

Sequence of Human SGLT2 (P31639 whole entry): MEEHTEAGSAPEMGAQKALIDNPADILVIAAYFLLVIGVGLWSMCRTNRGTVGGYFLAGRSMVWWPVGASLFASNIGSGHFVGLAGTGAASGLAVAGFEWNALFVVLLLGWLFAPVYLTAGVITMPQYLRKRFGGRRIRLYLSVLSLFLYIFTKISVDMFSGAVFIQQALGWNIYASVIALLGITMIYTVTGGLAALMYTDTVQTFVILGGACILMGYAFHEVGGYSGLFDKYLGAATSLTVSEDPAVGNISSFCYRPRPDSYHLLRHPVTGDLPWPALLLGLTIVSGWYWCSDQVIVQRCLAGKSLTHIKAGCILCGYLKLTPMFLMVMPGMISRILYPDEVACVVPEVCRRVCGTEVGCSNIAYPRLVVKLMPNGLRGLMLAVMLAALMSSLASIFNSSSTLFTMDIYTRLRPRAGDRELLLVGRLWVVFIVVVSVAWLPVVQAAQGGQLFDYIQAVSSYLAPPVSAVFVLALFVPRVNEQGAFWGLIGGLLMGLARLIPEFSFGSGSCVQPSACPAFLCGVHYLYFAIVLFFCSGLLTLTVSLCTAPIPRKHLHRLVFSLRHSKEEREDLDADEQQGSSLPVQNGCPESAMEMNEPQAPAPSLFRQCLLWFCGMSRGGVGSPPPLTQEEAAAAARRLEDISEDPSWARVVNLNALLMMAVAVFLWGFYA
Sequence of Mouse SGLT2 (Q923I7 whole entry): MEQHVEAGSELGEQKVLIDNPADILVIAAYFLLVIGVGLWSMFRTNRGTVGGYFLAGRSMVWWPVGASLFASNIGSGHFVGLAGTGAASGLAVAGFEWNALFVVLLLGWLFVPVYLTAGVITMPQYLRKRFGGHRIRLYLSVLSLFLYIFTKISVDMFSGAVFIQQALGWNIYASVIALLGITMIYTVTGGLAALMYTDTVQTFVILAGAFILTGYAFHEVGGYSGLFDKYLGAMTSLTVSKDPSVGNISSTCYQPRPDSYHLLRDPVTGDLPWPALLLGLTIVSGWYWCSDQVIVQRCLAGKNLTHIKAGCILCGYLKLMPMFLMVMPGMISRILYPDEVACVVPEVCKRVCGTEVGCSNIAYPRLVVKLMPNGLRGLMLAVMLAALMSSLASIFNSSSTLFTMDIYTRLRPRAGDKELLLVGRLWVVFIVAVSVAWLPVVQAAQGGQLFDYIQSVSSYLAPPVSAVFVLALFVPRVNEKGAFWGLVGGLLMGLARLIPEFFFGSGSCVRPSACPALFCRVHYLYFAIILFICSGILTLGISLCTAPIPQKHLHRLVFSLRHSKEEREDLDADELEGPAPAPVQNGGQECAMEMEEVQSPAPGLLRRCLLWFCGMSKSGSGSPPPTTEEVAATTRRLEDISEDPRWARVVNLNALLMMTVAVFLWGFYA

IC50 (Human SGLT2): 4.4 ± 1.2 nM
IC50 (Mouse SGLT2): 2 nM
IC50 (Rat SGLT1): 571 nM
Structure (SMILES): Cc1ccc([C@@H]2O[C@H](CO)[C@@H](O)[C@H](O)[C@H]2O)cc1Cc1ccc(-c2ccc(F)cc2)s1 [canagliflozin, Canagliflozin]
